Literature values, collected in patent US5369112A, “Method of treating cataracts caused by active oxygen” (Mitsubishi Gas Chemical Company, Inc., priority 1991, dated 1994).

Legend:
[1] = system: liver diseases caused by carbon tetrachloride, endotoxin shock and cataracts caused by hydrocortisone; conditions: Watanabe 1988; Matsumoto 1989; Nishigoori 1989; cited from earlier work
[2] = 109th meeting of Japan Pharmacological Society, 1989; cited from earlier work
kidney = conditions: Watanabe et al, Hiroshima J. Med. Sci.; cited from earlier work

SMILES: O=C(O)c1cc(C(=O)O)c2c(n1)C(=O)C(=O)c1cc(C(=O)O)[nH]c1-2 [PQQ, pyrrolo quinoline quinone]
- inhibition of diseases [1]: inhibits liver diseases caused by carbon tetrachloride, endotoxin shock and cataracts caused by hydrocortisone
- active oxygen scavenging action [2]: strong active oxygen scavenging action
- kidney toxicity (kidney): has kidney toxicity
